Some test systems named below: M14; NCI-H460; NCI-H23; SF-295; IGROV-1; SK-MEL-5; SK-MEL-28; HOP-62; U-251; LOX IMVI; SF-539; Malme-3M; OVCAR-3; SW-620; MOLT-4; SNB-75; OVCAR-8; A498; A549; UACC-257.
What all share (assay): inhibition of tumour cell growth, NCI panel, 48 h

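How tested: cells in 96-well plates exposed to compound for 48 hours at five concentrations. Here, GI50 denotes the concentration required for 50% inhibition of growth.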 Active and inactive are the calls of the source. Rule as the data show it: active = GI50 up to about 1.1 µM and inactive = higher.

Take `CC1=NC(C(=O)O)Cc2c1[nH]c1ccccc21` (stereo not drawn): the GI50 in the assay with M14, with NCI-H460, with NCI-H23, in the assay with SF-295, with IGROV-1 and in the assay with SK-MEL-5 was > 100 µM (inactive) each time. Besides, the GI50 is > 100 µM (inactive) in the assay with SK-MEL-28; < 0.01 µM (active) with HOP-62; > 100 µM (inactive) in the assay with U-251; > 100 µM (inactive) in the assay with LOX IMVI; > 100 µM (inactive) with SF-539; > 100 µM (inactive) with Malme-3M. In addition, the GI50 in the assay with OVCAR-3, with SW-620, with MOLT-4, with SNB-75, in the assay on OVCAR-8 and in the assay on A498 was > 100 µM (inactive) each time.

`CCOC(=O)CNC(=O)C(CCC(=O)N(C)O)NC(=O)CCC(N)C(=O)O` (stereo not drawn): the GI50 in the assay on M14, in the assay with NCI-H460, in the assay on NCI-H23, in the assay on SF-295, in the assay with IGROV-1 and in the assay on SK-MEL-5 was > 100 µM (inactive) each time. The GI50 in the assay with A549, in the assay with SK-MEL-28, with HOP-62, with U-251, in the assay on UACC-257 and with LOX IMVI was > 100 µM (inactive) throughout. For the same compound, the GI50 in the assay with SF-539, with OVCAR-3, with SW-620, in the assay with MOLT-4, in the assay on SNB-75 and in the assay with OVCAR-8 was > 100 µM (inactive) in each case. Further, the GI50 in the assay with A498 was > 100 µM (inactive).

For the compound `O=C1NC2(CCCCC2)C2CCCCCC12` (stereo not drawn), the GI50 in the assay on M14, in the assay with NCI-H460, in the assay with NCI-H23, with SF-295, with IGROV-1 and with A549 was > 100 µM (inactive) in each case. In addition, the GI50 in the assay on SK-MEL-28, in the assay on HOP-62, in the assay with U-251, in the assay with UACC-257, in the assay with LOX IMVI and in the assay with SF-539 was > 100 µM (inactive) in each case. Also, the GI50 in the assay on Malme-3M, with OVCAR-3, with SW-620, in the assay on MOLT-4, in the assay on SNB-75 and in the assay on A498 was > 100 µM (inactive) each time.

For the compound `O=C(NNC(=S)NCc1ccccc1)C12CC3CC(CC(C3)C1)C2`, the GI50 in the assay on M14 was 74.3 µM (inactive); in the assay on NCI-H460, 36.3 µM (inactive); with NCI-H23, 74.6 µM (inactive); with SF-295, 34.4 µM (inactive); with IGROV-1 it was > 100 µM (inactive); in the assay with SK-MEL-28, 67.6 µM (inactive). Further, the GI50 with HOP-62 is 75.2 µM (inactive); with U-251, 49.8 µM (inactive); in the assay with UACC-257 it was 52.5 µM (inactive); in the assay with LOX IMVI it was 35.4 µM (inactive); in the assay with SF-539, > 100 µM (inactive); in the assay with Malme-3M, > 100 µM (inactive). The GI50 in the assay on OVCAR-3 is 54.6 µM (inactive); with SW-620, 48 µM (inactive); with MOLT-4, 19.1 µM (inactive); with SNB-75, 49.4 µM (inactive); in the assay with OVCAR-8, > 100 µM (inactive); in the assay on A498, > 100 µM (inactive).

Consider `COc1cc2c(cc1OC)C(Cl)C(c1cc(OC)c(OC)c(OC)c1)=C2Cl` (stereo not drawn), for which the GI50 with M14 was 17.2 µM (inactive); in the assay on NCI-H460, 14.4 µM (inactive); with NCI-H23, 19.3 µM (inactive); in the assay on SF-295 it was 15.2 µM (inactive); with IGROV-1, 24 µM (inactive); with SK-MEL-5 it was 15.6 µM (inactive). Besides, the GI50 in the assay on SK-MEL-28 is 16.4 µM (inactive); in the assay on U-251, 16.4 µM (inactive); with LOX IMVI, 13.1 µM (inactive); in the assay on SF-539, 13.8 µM (inactive); in the assay with Malme-3M, 14.1 µM (inactive); in the assay with OVCAR-3 it was 17.1 µM (inactive). Further, the GI50 in the assay on SW-620 is 18.8 µM (inactive); in the assay with MOLT-4 it was 7.06 µM (inactive); in the assay on SNB-75, 2.69 µM (inactive); in the assay with OVCAR-8 it was 17.5 µM (inactive); with A498, 22.3 µM (inactive).

As for `CN(C)CCSc1nccc(-c2ccc(-c3ccnc(SCCN(C)C)n3)s2)n1`, the GI50 in the assay with NCI-H460 was 3.01 µM (inactive); with NCI-H23, 11.2 µM (inactive); with SF-295, 10.7 µM (inactive); in the assay with IGROV-1, 12.6 µM (inactive); with SK-MEL-5, 15.9 µM (inactive); in the assay with A549, 12.4 µM (inactive). The GI50 in the assay with SK-MEL-28 was 19.1 µM (inactive); with HOP-62 it was 15.9 µM (inactive); in the assay on U-251, 12.9 µM (inactive); in the assay with UACC-257, 16.7 µM (inactive); with LOX IMVI, 3.42 µM (inactive); in the assay with SF-539, 6.87 µM (inactive). Also, the GI50 in the assay with Malme-3M was 11.9 µM (inactive); in the assay with OVCAR-3 it was 13.4 µM (inactive); in the assay with SW-620, 3.18 µM (inactive); with MOLT-4, 0.76 µM (active); with SNB-75 it was 14.4 µM (inactive); with OVCAR-8 it was 6.1 µM (inactive). Moreover, the GI50 in the assay with A498 was 15.1 µM (inactive).

Consider `C1CCC2(CC1)O[C@@H]1[C@@H](O2)[C@@H](O[C@H]2O[C@@H]3COC4(CCCCC4)O[C@H]3[C@@H]3OC4(CCCCC4)O[C@@H]23)O[C@@H]2COC3(CCCCC3)O[C@@H]12`, for which the GI50 in the assay on M14, with NCI-H23, in the assay with SF-295, with IGROV-1, in the assay with SK-MEL-5 and in the assay with A549 was > 100 µM (inactive) each time. The GI50 in the assay on SK-MEL-28, in the assay with HOP-62, in the assay with U-251, in the assay with UACC-257, in the assay with LOX IMVI and in the assay on SF-539 was > 100 µM (inactive) throughout. Moreover, the GI50 is > 100 µM (inactive) in the assay with Malme-3M; > 100 µM (inactive) with OVCAR-3; > 100 µM (inactive) in the assay with SW-620; 23.9 µM (inactive) with MOLT-4; > 100 µM (inactive) in the assay on SNB-75; > 100 µM (inactive) in the assay with OVCAR-8. Besides, the GI50 in the assay on A498 is > 100 µM (inactive).

On to `Nc1cc2nc(O)c(O)nc2cc1N`, for which the GI50 in the assay on NCI-H460, with NCI-H23, with SF-295, with IGROV-1, in the assay on SK-MEL-5 and with A549 was > 100 µM (inactive) in each case. Moreover, the GI50 with SK-MEL-28, in the assay with HOP-62, in the assay with U-251, in the assay on UACC-257, in the assay with LOX IMVI and in the assay on SF-539 was > 100 µM (inactive) in each case. Further, the GI50 with Malme-3M, with OVCAR-3, in the assay with SW-620, in the assay on MOLT-4, in the assay with SNB-75 and in the assay with OVCAR-8 was > 100 µM (inactive) in each case. Besides, the GI50 in the assay with A498 is > 100 µM (inactive).

Turning to `CO[C@@H]1O[C@H](C(=O)c2ccccc2)[C@H]2OC(C)(C)O[C@@H]12`, the GI50 in the assay with M14 was > 100 µM (inactive); in the assay on NCI-H460 it was 38.1 µM (inactive); with NCI-H23 it was 94.8 µM (inactive); in the assay on SF-295 it was > 100 µM (inactive); with IGROV-1, > 100 µM (inactive); in the assay on SK-MEL-5, > 100 µM (inactive). The GI50 with HOP-62, in the assay with U-251, with UACC-257, in the assay on LOX IMVI, in the assay on SF-539 and with OVCAR-3 was > 100 µM (inactive) in each case. The GI50 was 56.8 µM (inactive) in the assay with SW-620; > 100 µM (inactive) in the assay with MOLT-4; 96.8 µM (inactive) with SNB-75; > 100 µM (inactive) in the assay with OVCAR-8; > 100 µM (inactive) in the assay on A498.

For the compound `CCOC(=O)c1nc2cc(C(F)(F)F)ccc2nc1Oc1ccc(F)cc1`, the GI50 in the assay on M14, in the assay on NCI-H460, in the assay with SF-295, in the assay on IGROV-1, in the assay on SK-MEL-5 and in the assay with A549 was > 100 µM (inactive) each time. The GI50 in the assay on SK-MEL-28, in the assay with U-251, with UACC-257, in the assay with LOX IMVI, with SF-539 and with Malme-3M was > 100 µM (inactive) each time. Also, the GI50 in the assay with OVCAR-3, with SW-620, in the assay with MOLT-4, in the assay on SNB-75, with OVCAR-8 and in the assay with A498 was > 100 µM (inactive) in each case.

For `CCOC1=C2N=C(Cc3ccc(F)cc3)NC2C(=O)c2ccccc21` (stereo not drawn), the GI50 is 25.5 µM (inactive) in the assay on M14; 12.6 µM (inactive) in the assay on NCI-H460; 18.3 µM (inactive) in the assay with NCI-H23; 66.7 µM (inactive) with IGROV-1; 27.5 µM (inactive) with SK-MEL-28; 58.9 µM (inactive) in the assay with HOP-62. Besides, the GI50 was 33 µM (inactive) in the assay with U-251; 7.91 µM (inactive) with UACC-257; 22.2 µM (inactive) in the assay with LOX IMVI; 13.3 µM (inactive) in the assay on SF-539; 11.5 µM (inactive) with Malme-3M; 18.6 µM (inactive) in the assay with OVCAR-3. In addition, the GI50 is 17.5 µM (inactive) with MOLT-4, 15.7 µM (inactive) in the assay on SNB-75, 20.6 µM (inactive) in the assay on OVCAR-8 and 21.6 µM (inactive) with A498.

The values above are taken from ChEMBL document CHEMBL1201862, “PubChem BioAssay data set” (2004).
